In patent publication US9596874B2, “Bitter taste masking compositions and method of masking bitter taste” (Givaudan S.A., priority 2010, dated 2017):

Assay: Panel tasting of KCl/NaCl solutions in water
Details: for masking of the off-notes of KCl: 5000 ppm sugar alcohol in water with 1600 ppm KCl and 800 ppm NaCl, panel of professional tasters
Description: Three solutions were prepared: • A 1600 ppm of KCl and 800 ppm of NaCl in water • B 1600 ppm of KCl and 800 ppm of NaCl in water containing 5000 ppm of mannitol • C 1600 ppm of KCl and 800 ppm of NaCl in water containing 5000 ppm of dulcitol The solutions were compared by a panel of professional tasters.

Row | SMILES | masking compared with mannitol (5000 ppm dulcitol vs 5000 ppm mannitol, 1600 ppm KCl and 800 ppm NaCl in water, panel) | taste perception (5000 ppm dulcitol, 1600 ppm KCl and 800 ppm NaCl in water, panel) | masking of the off-notes of KCl
1 | OC[C@@H](O)[C@H](O)[C@H](O)[C@@H](O)CO [dulcitol, Galactitol (=dulcitol)] | noticeably better in masking | more positive, described as ‘rounded-off’, perception | mask the off-notes KCl well
2 | OC[C@@H](O)[C@@H](O)[C@H](O)[C@H](O)CO [mannitol, Mannitol] | – | – | mask the off-notes KCl well
